Measurements published in US20060014801A1, “Prevention and treatment of cognitive impairment using (R)-(-)-5-methyl-1-nicotynoyl-2-pyrazoline (MNP) and analogs” (The Johns Hopkins University, priority 2002, published 2006).

What was measured:
aged impaired (AI) rats = assay type: in vivo; details: 50 mg/kg/day s.c. minipump
Method: Spatial memory version of the Morris water maze: Behavioral testing is conducted by an experimenter who is blind to drug treatment. Fourteen 25-27 month-old Long-Evans rats, previously characterized as cognitively impaired (AI rats), were tested in a modified version of the Morris water maze (MWM) task using the same MWM apparatus as described above. Unlike the traditional protocol wherein the platform location remained constant throughout training, the escape platform location in this spatial memory version of the task varied from day-to-day (in one of nine different positions).
AI rats were given six training trials per day with a 60-sec intertrial interval. On each training trial, the rat was released in the maze from one of four equally spaced starting positions around the perimeter of the pool. […] Following the six training trials, the rat is returned to its home cage and placed in the animal housing room. After a delay of four hours, the rat is given one additional testing trial (the “retention trial”) with the escape platform located in the same position as in the 6 training trials. The length of the rat's swim path to reach the escape platform is measured in all six training trials and the retention trial. Spatial memory in this task is measured by comparing the swim path lengths in the retention trial with the sixth (and final) training trial. […] A greater difference in performance in these two trials represents a greater degree of forgetting. After two days of acclimation to these procedures, this test protocol is given for nine consecutive days, with the position of the escape platform moved daily.
MNP enhances the cognitive performance of aged rats in the spatial memory version of the MWM: Following characterization for cognitive status with a traditional MWM protocol, impaired aged rats were assigned to one of two treatment conditions (vehicle controls or MNP). […] AI rats were pretreated with either vehicle or MNP for 9 days prior to behavioral testing. Osmotic minipumps (Alzet) were filled with either vehicle (0.9% saline) or MNP (50 mg/kg/day) and implanted subcutaneously. Initially, Alzet pumps that administer compound for one week were implanted; after seven days, these pumps (now empty) were removed and replaced with full two-week pumps allowing delivery of either MNP or saline for a total of 21 days. On Day 9 of treatment with either vehicle or MNP, MWM testing was begun. Data were collected in two replications with vehicle- and drug-treated rats represented in each. A total of 9 vehicle-treated and 5 MNP-treated rats completed the entire protocol. Several rats in both treatment groups, however, died during the execution of the study. […]

GLT1B = experiment: Western blot of GLT1B protein expression in hippocampus of young rats after 7 days s.c. MNP; assay type: in vivo, Long-Evans rats; details: 50 mg/kg/day s.c. minipump
Method: Administration of MNP: Twelve young Long-Evans rats, weighing approximately 400-500 grams, received treatment with either vehicle (0.9% saline; n=6) or MNP (50 mg/kg/day; n=6). The rats were administered MNP and vehicle continuously for one week via an osmotic minipump (Alzet, model 2ML1) implanted subcutaneously on the back, slightly posterior to the scapulae. After 7 days of treatment, the rats were sacrificed, their brains were removed, the hippocampi dissected out, frozen on dry ice and sent for Western blot analysis. The implanted minipump was also removed to verify proper drug delivery by measuring residual volume.
Preparation of brain tissue; Hippocampi were homogenized in 2 ml sucrose buffer (20 mM Tris pH 7.4, 10% sucrose, complete protease inhibitor cocktail mini-tablets [Roche cat#1-836-153]) for 25 seconds (Omni 115V Tissue Homogenizer TH-115). SDS (at 2%) was immediately added to the homogenate, and the samples were sonicated (Branson Sonifier 250; 10 pulses each). Extracts were total cellular extracts solubilized in SDS and include both cytoplasmic and membrane-bound GLT1.
Western blot analysis: Immunoblotting was performed using a LICOR Odyssey based system which uses IRDye 800 and Alexa Fluor 680 labeled secondary antibodies and signal is detected by diode lasers sensitive to infrared emissions of different wavelength. […]

rat = experiment: Other behavioral measures in the rat; assay type: in vivo; details: 10 mg/kg/day

With `C[C@@H]1CC=NN1C(=O)c1cccnc1` [MNP, (R)-(−)-5-methyl-1-nicotinoyl-2-pyrazoline] the “Difference in performance between final training trial and retention trial” value (aged impaired (AI) rats; 4-hour delay) was “no significant difference in performance”, the “Performance in retention trials vs vehicle-treated controls” value (aged impaired (AI) rats; 4-hour delay, Days 9-11 of treatment) was “performed significantly better” and the “Savings scores (memory for the platform location) vs vehicle-treated controls” value (aged impaired (AI) rats; Mann Whitney U test p<0.05) was “significantly better than vehicle-treated controls”. For the same compound, the “Performance on training trials 1-6 vs vehicle group” value (aged impaired (AI) rats; two-way analysis of variance) was “no significant difference between the groups”, the “GLT1B immunoreactivity compared to vehicle controls” value (GLT1B) was “no difference” and the “Efficacy in other behavioral measures in the rat” value (rat) was “efficacious”.
